Values joined by “and” are separate entries in the source; they are usually repeats but may differ in a detail not shown here. Equal values may be shown once. Read-outs that look alike come from different tables or passages of the source. Marks after values point to notes of the source that are not given here.
Assays:
[1] = tested on: Shh-dependent pancreatic cancer cell line L3.6pl; format: cell-based; conditions: for Cell Growth (normalized): normalized to cell growth in carrier
[2] = tested on: mouse embryo zone of polarizing activity (ZPA); conditions: Bell, et al. (1999); cited from earlier work
C57BL/6CrIBR mice = experiment: Cadmium-induced forelimb ectrodactyly in fetuses of treated pregnant mice; format: in vivo, mouse
Procedure: Cadmium-induced Forelimb Ectrodactyly. C57BL/6CrIBR mice were purchased from Charles River Laboratories (Wilmington, Mass.). Individual males were placed in female cages for the last 2-3 hours of the 12 hour dark cycle (10:00 pm to 10:00 am). The presence of a vaginal plug indicated a successful mating and 9:00 am was considered time zero of pregnancy. On day 7 of gestation, plugged females were lightly anesthetized with Isofluorane and checked for pregnancy by abdominal palpation. The pregnant females were administered CdSO4 (SIGMA, St. Louis, Mo.), 4 mg/kg in phosphate-buffered saline (PBS), intraperitoneally, at 9:00 pm on day 9. These pregnant females were then allowed free access to food and water until day 18 when they were sacrificed by Isofluorane overdose. The fetuses were removed from the uterus and prepared for skeletal analysis by double-staining of cartilage and bone (Kuczuk and Scott (1984) supra).
CdSo4, 4 mg/kg, was administered intraperitoneally on day 9 of gestation.

[3] = tested on: mouse embryo zone of polarizing activity (ZPA); experiment: Polarizing activity of mouse embryo ZPA grafted to chick wing bud; format: in vivo
Procedure: Polarizing Activity. Fertilized White Leghorn eggs (SPAFAS) were incubated at 38° C. On the second day, 1 to 2 mL of albumin were removed so that the eggs could be windowed the next day without damaging the embryo. After windowing, 3 drops of penicillin/streptomycin (50 units/mL) were added and the window closed with SCOTCH™ tape. On the fourth day of incubation a piece of day 10.5 mouse embryo right forelimb was excised from the posterior aspect (i.e., ZPA) of cadmium sulfate- or PBS-exposed embryos and grafted between the ectoderm and mesenchyme at the anterior margin of a stage 19/20 (Hamburger and Hamilton (1951) J. Morphol. 88:49-92) chick right wing bud. After grafting, 3 drops of penicillin/streptomycin were added, the window closed with tape and the egg replaced in the incubator for 7 additional days. At this time the chick embryo was sacrificed and the right wing bud processed for skeletal examination (Kuczuk and Scott (1984) supra). After staining, the digit pattern was determined and the index of polarizing activity was assessed according to standard methods (Honig, et al. (1981) J. Embryol. Exp. Morph. 62:203-216),

Shh signaling = Shh signaling activity of forelimb bud lysate in Shh-Light 2 cells (Gli-luciferase reporter); format: cell-based, mouse; conditions: lysate of E10.5 right forelimb bud cells, 24 h after 4 mg/kg to dam
Procedure: Shh Signaling Activity. Pregnant C57BL/6 mice were treated with CdSo4, 4 mg/kg, or PBS, 10 mL/kg, at 9:00 pm on day 9 of gestation. Twenty-four hours post-treatment the dams were sacrificed. The implantation sites were removed and frozen in liquid nitrogen. Samples were stored at −80° C. until use in the Shh activity assay.
To create a sample of cell lysate, a litter of implantation sites was thawed and the embryos dissected free of their surrounding membranes. Somites were counted and the embryo limb staged according to standard practices (Wanek, et al. (1989) J. Exp. Zool. 249:41-49). […] Samples were sonicated and DNA measured using the HOEFER™ DYNA QUANT™ 200 Fluorimeter. After DNA quantification, fetal bovine serum was added so that the final concentration of serum was 0.5%.
Assay of SHH signaling activity was conducted in Shh-Light 2 cells, an NIH-3T3-derived stable cell line containing an integrated Gli-luciferase and constitutive Renilla luciferase reporters. […] Using the DUAL-LUCIFERASE® Reporter Assay System (PROMEGA®, Madison, Wis.), luciferase activity was measured and normalized to a Renilla control.
A more direct and specific assay of Shh signaling is provided in Shh-Light 2 cells. […] Culture of these cells with a medium or cellular homogenate containing Shh activates reporter expression and that activity can be quantitated luminometrically.

Shh [4] = experiment: Whole mount in situ hybridization, Shh; format: in vivo, mouse; conditions: right forelimb, 24 hours after treatment
Procedure: (§1) Whole Mount In Situ Hybridization. Assays were performed in accordance with standard methods (Wilkinson and Nieto (1993) Meth. Enzymol. 225:361-373). Embryos from control and cadmium-exposed pregnancies were processed together in the same vessel, examined and photographed using an OLYMPUS® SZX9 stereomicroscope. Digoxigenin-labeled riboprobes were transcribed from linearized DNA templates.
(§2) The expression pattern of four genes (i.e., Shh, Ptch1, Gli3, and Fgf8) in the right forelimb of control and cadmium-exposed embryos was examined by whole mount in situ hybridization 24 hours after treatment. The expression of Shh was restricted to the posterior mesenchymal cells of the developing murine limb bud.

Ptch1 [5] = experiment: Whole mount in situ hybridization, Ptch1; format: in vivo, mouse; conditions: right forelimb, 24 hours after treatment
Procedure: as §1, §2

Gli3 [6] = experiment: Whole mount in situ hybridization, Gli3; format: in vivo, mouse; conditions: right forelimb, 24 hours after treatment
Procedure: as §1, §2

Fgf8 = experiment: Whole mount in situ hybridization, Fgf8; format: in vivo, mouse; conditions: day 10.5, 24 hours after administration
Procedure: as §1, §2

Shh [7] = experiment: Quantitative RT-PCR of forelimb buds, Shh; format: in vivo, mouse; conditions: limb buds of day 10.5 embryos, normalized to tubulin
Procedure: (§3) Real Time Reverse Transcribed-Polymerase Chain Reaction (RT-PCR). Precise levels of message expression of Shh, Ptch1, and Gli3 were performed by RT-PCR. […] Right and left forelimb buds from a single litter (n=3) were pooled separately and equal amounts of total RNA were reverse-transcribed using […]™ II (INVITROGEN™, Carlsbad, Calif.) in the presence of oligo-dT or random primers. For quantitative PCR, aliquots of the reverse transcription reaction were amplified in the presence of SYBR® Green (Quantitect SYBR® green PCR kit; QIAGEN®, Valencia, Calif.) and gene specific primers for Shh, Ptch1, Gli3 and aTub. […] The PCR amplifications and monitoring of product generation per cycle were performed using a DNA Engine OPTICON® 2 Continuous Fluorescence Detector and evaluated using its software. Gene expression levels were determined by gene-specific standard curves in the linear amplification phase. All values were normalized to tubulin within the same sample.

Ptch1 [8] = experiment: Quantitative RT-PCR of forelimb buds, Ptch1; format: in vivo, mouse; conditions: limb buds of day 10.5 embryos, normalized to tubulin
Procedure: as §3

Gli3 [9] = experiment: Quantitative RT-PCR of forelimb buds, Gli3; format: in vivo, mouse; conditions: limb buds of day 10.5 embryos, normalized to tubulin
Procedure: as §3

[10] = 4 mg/kg i.p. day 9 of gestation, 8 dams, 68 implantation sites
[11] = 4 mg/kg i.p. day 9 of gestation, fetuses examined day 18

## CC(=O)Nc1nnc(S(N)(=O)=O)s1 [Acetazolamide, reference compound]
[1]; inhibitor 10 μM
  Cell Growth (normalized): 1.0312
[1]; inhibitor 100 μM
  Cell Growth (normalized): 1.0370
[1]; inhibitor 1000 μM
  Cell Growth (normalized): 1.0130
[2]
  Signaling by Shh protein measured by polarizing activity of ZPA (in words): almost totally abolished

## Cadmium Sulfate
[1]; comparison of inhibitors
  Inhibition of proliferation (in words): more effectively than cyclopamine and acetazolamide
[1]; inhibitor 1 μM
  Cell Growth (normalized): 1.0341
[1]; inhibitor 10 μM
  Cell Growth (normalized): 0.9007
[1]; inhibitor 30 μM
  Cell Growth (normalized): 0.7200
[1]; inhibitor 100 μM
  Cell Growth (normalized): 0.0041
[1]; inhibitor 1000 μM
  Cell Growth (normalized): 0.0029
C57BL/6CrIBR mice; 4 mg/kg i.p. day 9
  Fetuses with right forelimb affected by postaxial ectrodactyly: 78%
  Number of fetuses with ectrodactyly, Bilateral R < L: 3
  Number of fetuses with ectrodactyly, Bilateral R = L: 21
  Number of fetuses with ectrodactyly, Bilateral R > L: 5
C57BL/6CrIBR mice; 4 mg/kg i.p. day 9, left forelimb only
  Number of fetuses with ectrodactyly, LFL Only: 4
C57BL/6CrIBR mice; 4 mg/kg i.p. day 9, right forelimb only
  Number of fetuses with ectrodactyly, RFL Only: 12*
C57BL/6CrIBR mice; [10]
  No. Resorptions: 15
  Resorptions (%): 22%
C57BL/6CrIBR mice; [11]
  Fetuses with Postaxial Forelimb Ectrodactyly (%): 85%
  No. Fetuses with Postaxial Forelimb Ectrodactyly: 45
[3]; day 10.5 mouse embryo ZPA after exposure
  Capability of ZPA to induce limb reduplication (in words): severely inhibited
[3]; individual grafts of day 10.5 ZPA from exposed embryos, x = unidentifiable partial duplicated digit, listed as CdSo4
  Induced Digit Pattern: 22234 and 234 (4×)
Shh signaling
  Shh signaling level compared to lysate from control embryo right forelimb buds: 25%
Shh [4]
  Shh expression location or intensity (in words): No discernable difference
Ptch1 [5]
  Ptch1 expression pattern (in words): unchanged
Gli3 [6]
  Gli3 expression (in words): did not alter Gli3 expression
Fgf8
  Fgf8 staining (in words): slight truncation of Fgf8 staining posteriorly
Shh [7]
  Shh mRNA level (in words): A reduction of mRNA levels was not observed
Ptch1 [8]
  Ptch1 mRNA level (in words): A reduction of mRNA levels was not observed
Gli3 [9]
  Gli3 mRNA level (in words): A reduction of mRNA levels was not observed
